Data published in patent publication US11781160B2, “Methods for the production of methacrylates” (priority 2018, dated 2023).

Columns and labels:
[1] = system: E. coli BW25113 isolate 19-marR(V84G) rpoC(R1075C) ompR(R15S) acrB(T3791) acrR(indels); assay: Growth kinetics of isolated strain 19 with 20% v/v BMA
[2] = system: gene transcription in strain 23; assay: Transcriptome analysis with added BMA, strain 23
Description: (§1) Transcriptome analysis was carried out to characterize transcriptional activity in mutant microorganisms using standard methods.
(§2) Sample Preparation • 1) Streak strains onto fresh MSX agar (15 g/L) plates directly from the cryostocks and incubate overnight at 37° C. • 2) Isolate single colonies and inoculate pre-cultures in MSX, using 50 ml shake flasks. Incubate overnight at 37° C. and 250 rpm. • 3) Inoculate cultures in MSX to an initial OD600 of 0.05, using 250 mL pyrex shake flasks with 24/29 neck join. Incubate at 37° C. and 250 rpm. Do 4 biological replicates (3 replicates for sequencing plus one backup)—4 flasks per strain. • 4) Seal shake flasks with sterile Suba seals. To monitor OD, take samples using a sterile syringe and needle after first swabbing the Suba seals with 70% ethanol. Monitor OD. • 5) When OD reaches 0.3, collect first sample for RNA extraction (“before” sample) into a pre-chilled falcon. Keep samples on ice. • 6) Immediately after, add 20% (v/v) BMA. Re-incubate cultures. • 7) Quickly process the samples according to the RNeasy kit protocol, until step 6 of protocol 1. Always keep samples on ice and store it at −80° C. until further use, if possible, flash freeze in liquid nitrogen it before storing. • 8) One hour after the first sample collection/BMA addition, collect the second sample for RNA extraction (“after” sample). Proceed as explained before. • 9) Continue to monitor the OD until the cultures reach 24 h. • To summarise, each strain tested will have 6 samples to send for sequencing, 3 collected right before the addition and 3 collected one hour after, plus 1 “back-up” for before and after, in case something goes wrong during extraction (8 samples total). Besides the WT strain with the addition of BMA, samples were also collected from a WT culture with no BMA, one hour after reaching OD of 0.3, as a control.
(§3) Transcription was compared for a double mutant and the wild-type in the presence and absence of BMA relative to the level in the wild type in the absence of BMA. For the avoidance of doubt the level in the table is the ratio of the level in the strain under the BMA exposure relative to the level in the wild type in the absence of added BMA.

[3] = system: E. coli MG1655 soxR(R20H)acrR(V29G); assay: Growth in MSX medium with 20% (v/v) BMA, double mutant; type: cell-based, Escherichia coli
[4] = system: E. coli MG1655 acrR(T32fs); assay: Growth in MSX medium with 20% (v/v) BMA, single mutation strain; type: cell-based, Escherichia coli; settings: 20% (v/v) BMA added immediately after inoculation
[5] = system: gene transcription in strain 22; assay: Transcriptome analysis with added BMA, strain 22
Description: as §1, §2, §3

[6] = system: gene transcription in strain 5; assay: Transcriptome analysis with added BMA, strain 5
Description: as §1, §2, §3

[7] = system: E. coli MG1655 soxR(R20H)acrR(T32fs); assay: Growth in MSX medium with 20% (v/v) BMA, double mutant; type: cell-based, Escherichia coli
[8] = system: E. coli BW25113 isolate 3-rob(R156H) ilvN(C41Y) phoP(L11F) acrB(V448L) acrR(indels); assay: Growth kinetics of isolated strain 3 with 20% v/v BMA
[9] = system: E. coli BW25113 isolate 22-rob(R156H) rpoB(T1037P) groL(P279L) acrR(49Yfs) 1197659(C > A); assay: Growth kinetics of isolated strain 22 with 20% v/v BMA
[10] = system: E. coli MG1655 soxR(R20H); assay: Growth in MSX medium with 20% (v/v) BMA, single mutant; type: cell-based, Escherichia coli; settings: 20% (v/v) BMA added immediately after inoculation
E. coli BW25113 ΔacrR = assay: Growth in MSX medium with 20% (v/v) BMA, knock-out strain; type: cell-based, Escherichia coli; settings: 20% (v/v) BMA added immediately after inoculation
[11] = 20% (v/v) BMA added during mid-exponential phase
[12] = 20% (v/v) BMA added immediately after inoculation

## C=C(C)C(=O)OCCCC [BMA, butyl 2-methylprop-2-enoate]
[1]
  Growth rate: 0.701 ± 0.007 h⁻¹
  Lag time: 5 h
  Max cell concentration: 0.653 ± 0.023 g/L
[2]
  IdhA transcription level relative to wild type without BMA: 28.20
  acrA transcription level relative to wild type without BMA: 6.50
  acrB transcription level relative to wild type without BMA: 7.66
  adiY transcription level relative to wild type without BMA: 6.73
  ariR transcription level relative to wild type without BMA: 14.82
  asr transcription level relative to wild type without BMA: 123.20
  bssR transcription level relative to wild type without BMA: 71.61
  ibpA transcription level relative to wild type without BMA: 31.35
  ibpB transcription level relative to wild type without BMA: 41.67
  narG transcription level relative to wild type without BMA: 42.52
  nirB transcription level relative to wild type without BMA: 25.46
  nirD transcription level relative to wild type without BMA: 25.17
  pspA transcription level relative to wild type without BMA: 32.81
  pspB transcription level relative to wild type without BMA: 27.16
  pspD transcription level relative to wild type without BMA: 28.18
  pspc transcription level relative to wild type without BMA: 28.45
  raiA transcription level relative to wild type without BMA: 31.13
  rmf transcription level relative to wild type without BMA: 8.80
  soxS transcription level relative to wild type without BMA: 30.40
  spy transcription level relative to wild type without BMA: 4.79
  ybfA transcription level relative to wild type without BMA: 29.99
  ybhG transcription level relative to wild type without BMA: 20.82
  ybiH transcription level relative to wild type without BMA: 16.75
  ydgU transcription level relative to wild type without BMA: 50.45
  yhjx transcription level relative to wild type without BMA: 596.44
  yibT transcription level relative to wild type without BMA: 42.63
  ymgA transcription level relative to wild type without BMA: 8.84
  ymgC transcription level relative to wild type without BMA: 7.42
  ynfM transcription level relative to wild type without BMA: 41.92
  yohk transcription level relative to wild type without BMA: 10.04
[3]; [11]
  Tolerance to BMA: enhanced tolerance to BMA compared to the soxR(R20H) mutation alone
[3]; [12]
  Growth compared with the single mutant with the soxR mutation: able to grow better than the single mutant
  Growth in the presence of BMA: able to grow
[4]
  Growth in the presence of BMA: able to grow
[5]
  IdhA transcription level relative to wild type without BMA: 25.80
  acrA transcription level relative to wild type without BMA: 7.44
  acrB transcription level relative to wild type without BMA: 7.17
  adiY transcription level relative to wild type without BMA: 23.19
  ariR transcription level relative to wild type without BMA: 12.95
  asr transcription level relative to wild type without BMA: 225.15
  bssR transcription level relative to wild type without BMA: 71.24
  ibpA transcription level relative to wild type without BMA: 70.31
  ibpB transcription level relative to wild type without BMA: 107.99
  narG transcription level relative to wild type without BMA: 61.85
  nirB transcription level relative to wild type without BMA: 20.40
  nirD transcription level relative to wild type without BMA: 26.97
  pspA transcription level relative to wild type without BMA: 47.39
  pspB transcription level relative to wild type without BMA: 35.43
  pspD transcription level relative to wild type without BMA: 38.90
  pspc transcription level relative to wild type without BMA: 39.73
  raiA transcription level relative to wild type without BMA: 52.61
  rmf transcription level relative to wild type without BMA: 17.43
  soxS transcription level relative to wild type without BMA: 3.66
  spy transcription level relative to wild type without BMA: 45.77
  ybfA transcription level relative to wild type without BMA: 36.33
  ybhG transcription level relative to wild type without BMA: 21.92
  ybiH transcription level relative to wild type without BMA: 16.75
  ydgU transcription level relative to wild type without BMA: 94.74
  yhjx transcription level relative to wild type without BMA: 902.70
  yibT transcription level relative to wild type without BMA: 77.30
  ymgA transcription level relative to wild type without BMA: 6.44
  ymgC transcription level relative to wild type without BMA: 5.45
  ynfM transcription level relative to wild type without BMA: 61.15
  yohk transcription level relative to wild type without BMA: 19.75
[6]
  IdhA transcription level relative to wild type without BMA: 18.24
  acrA transcription level relative to wild type without BMA: 6.28
  acrB transcription level relative to wild type without BMA: 7.49
  adiY transcription level relative to wild type without BMA: 24.79
  ariR transcription level relative to wild type without BMA: 21.79
  asr transcription level relative to wild type without BMA: 160.42
  bssR transcription level relative to wild type without BMA: 20.35
  ibpA transcription level relative to wild type without BMA: 43.39
  ibpB transcription level relative to wild type without BMA: 174.50
  narG transcription level relative to wild type without BMA: 47.85
  nirB transcription level relative to wild type without BMA: 34.19
  nirD transcription level relative to wild type without BMA: 16.69
  pspA transcription level relative to wild type without BMA: 23.32
  pspB transcription level relative to wild type without BMA: 16.87
  pspD transcription level relative to wild type without BMA: 14.10
  pspc transcription level relative to wild type without BMA: 16.55
  raiA transcription level relative to wild type without BMA: 20.11
  rmf transcription level relative to wild type without BMA: 15.45
  soxS transcription level relative to wild type without BMA: 41.81
  spy transcription level relative to wild type without BMA: 20.88
  ybfA transcription level relative to wild type without BMA: 20.19
  ybhG transcription level relative to wild type without BMA: 18.33
  ybiH transcription level relative to wild type without BMA: 15.30
  ydgU transcription level relative to wild type without BMA: 48.46
  yhjx transcription level relative to wild type without BMA: 105.59
  yibT transcription level relative to wild type without BMA: 29.57
  ymgA transcription level relative to wild type without BMA: 16.41
  ymgC transcription level relative to wild type without BMA: 17.15
  ynfM transcription level relative to wild type without BMA: 40.65
  yohk transcription level relative to wild type without BMA: 16.04
[7]; [11]
  Tolerance to BMA: enhanced tolerance to BMA compared to the soxR(R20H) mutation alone
[7]; [12]
  Growth compared with the single mutant with the soxR mutation: able to grow better than the single mutant
  Growth in the presence of BMA: able to grow
[8]
  Growth rate: 0.566 ± 0.010 h⁻¹
  Lag time: 4 h
  Max cell concentration: 0.790 ± 0.076 g/L
[9]
  Growth rate: 0.701 ± 0.015 h⁻¹
  Lag time: 4 h
  Max cell concentration: 0.523 ± 0.024 g/L
[10]
  Growth in the presence of BMA: able to grow
E. coli BW25113 ΔacrR
  Growth in the presence of BMA: unable to grow
